{
  "source": "paper PMC3717276",
  "about": "“Optimization and validation of mitochondria-based functional assay as a useful tool to identify BH3-like molecules selectively targeting anti-apoptotic Bcl-2 proteins” (BMC Biotechnology, 2013)",
  "key": {"[1]": {"tested_on": "mitochondria isolated from 2LMP cells", "test": "Permeabilization of mitochondrial outer membrane (MOMP), Cytochrome C and Smac release by Western blot", "format": "biochemical, human", "settings": "agent alone at indicated concentrations, 100 mM KCl buffer, 37°C, 60 min, Figure 3A", "procedure": "Mitochondria were isolated from breast cancer cells. Cells were harvested by centrifugation at 1200 g (Microcentrifuge 5415R from Eppendorf) for 5 min at 4°C and then washed with ice-cold PBS. Cell pellets were resuspended in 400 μl of mitochondria isolation buffer (MIB: pH 7.4; 0.1 mM EDTA, 10 mM Tris–HCl, 250 mM Sucrose) freshly added 1 mM PMSF and Protease Inhibitor Cocktail (Roche). Cell suspensions were then homogenized with 40 strokes in a Dounce Tissue Grinder on ice and centrifuged at 1200 g for 10 min at 4°C. Supernatants were centrifuged at 12000 g for 10 min at 4°C. Pellet enriched in mitochondria was washed three times with MIB, spun down at 12000 g for 10 min at 4°C. […] Protein concentrations were determined using Bradford Protein Assay (Protein Assay Kit II, Cat# 500–0002, Bio-Rad). […]\nSupernatant samples and mitochondrial pellet samples were subjected to protein separation by SDS-PAGE. After transfer to Polyvinylidene fluoride (PVDF) membranes, Cytochrome C, Smac proteins and loading control (Cytochrome C Oxidase IV, COX IV) were analyzed using the following primary antibodies: anti-Cytochrome C polyclonal antibody (1:500; #4272; Cell Signaling Techonology), anti-Smac/DIABLO polyclonal antibody (1:500; PC574; Calbiochem), anti-COX IV monoclonal antibody (3E11; 1:1000; #4850; Cell Signaling Techonology). […]"}, "[2]": {"target": "T1, Mcl-1 (Homo sapiens, UniProt Q07820)", "T1 construct": "encoding amino acid residues of 171–327; 8xHis (pHis-TEV vector) (N); made in house; host or cells: E. coli BL21(DE3)", "T1 sequence (Q07820 171-327)": "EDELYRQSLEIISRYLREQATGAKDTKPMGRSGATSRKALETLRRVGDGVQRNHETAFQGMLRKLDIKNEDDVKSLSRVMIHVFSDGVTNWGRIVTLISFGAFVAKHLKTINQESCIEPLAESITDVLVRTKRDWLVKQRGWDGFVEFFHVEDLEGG", "test": "SPR competitive solution binding assay (immobilized Bim BH3 peptide)", "settings": "read-out: SPR Mcl-1 IC50[nM] ± SD", "protocol": "The Mcl-1fragment (NM_021960) encoding amino acid residues of 171–327 was cloned into the pHis-TEV vector. Mcl-1 protein with an N-terminal 8×His tag was produced in E. coli BL21(DE3).\n(§1) Determination of kon, koff and Kd were calculated by simultaneous non-linear regression using BIAevaluation software (BIAcore Life Sciences).\n(§2) IC50 values were determined by Non-linear Least Squares analysis using Graph Pad Prism 5.0 software."}, "[3]": {"target": "T1, Mcl-1", "test": "FP competitive binding assay (FAM-Bid tracer)", "settings": "read-out: FP assay Mcl-1 Ki[nM] ± SD", "procedure": "After 2–3 hours incubation, the polarization values in milipolarization units (mP) were measured at an excitation wavelength of 485 nm and an emission wavelength of 530 nm using the Synergy H1 Hybrid Microplate Reader (BioTek)."}, "[4]": {"target": "T2, Bcl-xL (Homo sapiens, UniProt Q07817, DEL45-85)", "T2 construct": "8xHis (pHis-TEV vector) (N); made in house; host or cells: E. coli BL21(DE3)", "T2 sequence (Q07817 with tags, fused parts or gaps DEL45-85)": "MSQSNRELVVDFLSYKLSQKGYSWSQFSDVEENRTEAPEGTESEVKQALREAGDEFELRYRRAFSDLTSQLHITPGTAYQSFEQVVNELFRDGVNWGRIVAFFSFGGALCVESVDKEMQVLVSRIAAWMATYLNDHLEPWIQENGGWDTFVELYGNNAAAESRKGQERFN", "test": "FP competitive binding assay (FAM-Bak tracer)", "settings": "read-out: FP assay Bcl-xL Ki[nM] ± SD"}, "[5]": {"target": "T2, Bcl-xL", "test": "SPR competitive solution binding assay (immobilized Bim BH3 peptide)", "settings": "read-out: SPR Bcl-xL IC50[nM] ± SD", "protocol": "Lysis buffer contained 50 mM Tris, pH 7.5, 200 mM NaCl, 0.1% BME and Leupectin/Aprotin, while protein was eluted in buffer containing 20 mM Tris, pH7.5, 150 mM NaCl and 5 mM DTT.\nas §1, §2"}},
  "note": "Ends that are not written are not given here.",
  "data": [
    {"molecule": "CN(C)CC[C@H](CSc1ccccc1)Nc1ccc(S(=O)(=O)NC(=O)c2ccc(N3CCN(Cc4ccccc4-c4ccc(Cl)cc4)CC3)cc2)cc1[N+](=O)[O-]", "note": "[ABT-737]", "values": [
      {"measurement": "Cytochrome C and Smac release from 2LMP mitochondria", "setting": "[1]", "result": "effectively induced Cytochrome C and Smac release"}
    ]},
    {"molecule": "CSCC[C@H](NC(=O)[C@H](CCCNC(=N)N)NC(=O)[C@H](CCCNC(=N)N)NC(=O)[C@H](CC(C)C)NC(=O)[C@H](CCC(=O)O)NC(=O)[C@H](CCCNC(=N)N)NC(=O)CNC(=O)[C@H](Cc1ccc(O)cc1)NC(=O)[C@H](CCCNC(=N)N)NC(=O)[C@H](CCC(N)=O)NC(=O)[C@H](C)NC(=O)[C@H](C)NC(=O)[C@H](Cc1c[nH]c2ccccc12)NC(=O)[C@H](CC(C)C)NC(=O)[C@@H](N)CC(N)=O)C(=O)N[C@@H](CO)C(=O)N[C@@H](CC(=O)O)C(=O)N[C@@H](CCC(=O)O)C(=O)N[C@@H](Cc1ccccc1)C(=O)N[C@H](C(=O)N[C@@H](CC(=O)O)C(=O)N[C@@H](CO)C(=O)N[C@@H](Cc1ccccc1)C(=O)N[C@@H](CCCCN)C(=O)N[C@@H](CCCCN)C(=O)NCC(=O)O)C(C)C", "note": "[Bad]", "values": [
      {"measurement": "IC50", "setting": "[2]", "result": "> 30000", "unit": "nM"},
      {"measurement": "Ki", "setting": "[3]", "result": "> 20000", "unit": "nM"}
    ]},
    {"molecule": "PAELEVECATQLRRFGDKLNFRQKLL [Noxa]", "values": [
      {"measurement": "Ki", "setting": "[4]", "result": "> 10000", "unit": "nM"},
      {"measurement": "IC50", "setting": "[5]", "result": "> 30000", "unit": "nM"}
    ]}
  ]
}
